Laboratory results taken from patent US11795461B2, “Compositions and methods for treating beta-hemoglobinopathies” (CSL Behring Gene Therapy, Inc., priority 2017, dated 2023).

B1: sh211-3G: sh211 embedded in the miRNA-3G backbone, SEQ ID NO: 25; Pol-II (EF1a) driven (nucleic acid)
chain: CCGGATCAACGCCCTAGGTTTATGTTTGGATGAACTGACATACGCGTATCCGTCTTTTAAATCAAGGTCATAACCGTAGTGAAATATATATTAAACAGGTTATGACCTTGATTTAAAATACGGTAACGCGGAATTCGCAACTATTTTATCAATTTTTTGCGTCGAC
modifications: Synthetic miRNA211-3G
notes: Pol-II (EF1a) driven

How the values were obtained:
Format in all cases: cell-based, human
HPRT [1] = test: CRISPR knock-in of Pol-II-driven shRNA into CCR5 region of K562 cells, 6-TG selection, HPRT staining; details: for obvious cytotoxicity in K562 cells: knock-in
Excerpt: It has been well known that some polymerase III-dependent short-hairpin RNAs have overexpression issues and can induce acute cytotoxicity. […] This is an important concern when considering the use of RNA interference (RNAi) as a potential therapeutic approach, especially in stem cell gene therapy. Here, polymerase II was used as alternative promoter to express microRNA so as to effectuate knockdown of the expression of HPRT. A CRISPR/Cas9 gene editing approach was utilized, and a Cas9 with a single guide RNA (Cas9 RNP) targeting CCR5, together with a single-stranded DNA oligonucleotide donor (ssODN) encoding an HPRT Pol II driven shRNA, was used to enable efficient replacement of the CCR5 locus with a functional HPRT miRNA. […] For knock-in of sh211 and sh734, the obvious cytotoxicity in K562 cells was not observed.

K562 cells = test: in vitro 6TG selection and stability of transduced K562 cells (VCN, % GFP+); details: 6TG selected
Description: 4) 2×10^5 cells of control K562, 6 samples transduced at dilution factor 32 and 6 samples transduced at dilution factor 1 are reseeded in 6-well plate with 4 mL of RPMI without and with 300 nM of 6-thioguanine, respectively. 2.5×10^6 cells of 6 samples transduced at dilution factor 1 are made through mixing transduced and untransduced cells at ratio of 1:3. Two cell pellets (1×10^6 cells each) for DNA & RNA analysis for these 6 samples will be frozen down. The medium is refreshed every 3-4 days. K562 transduced with TL20cw-7SK/sh734-GFP (dilution factor at 256 and 8) will be included as positive controls.
5) Two cell pellets (1×10^6 cells each) for DNA & RNA analysis for 13 samples including control K562 will be frozen down at day 7/14/21 or even 28(MY). Copy numbers of GbG and sh734 are analyzed. The samples at day 21/28 are optional if the copy numbers of all samples are higher than 95% of expected value for day 14. […]
K562 cells were transduced with sh734 for 21 days before initiating 6TG treatment for 14 days (shaded areas). With reference to FIGS. 49A through 49G, vector copy number (VCN) was determined every two weeks from genomic DNA by multiplex RU5 qPCR and absolute quantitation from a standard curve using lentiviral vector (HIV-1-based LTR R-U5) target and human Apolipoprotein B (ApoB) reference sequences. […]

HPRT [2] = test: HPRT knockdown in transduced K562 cells (qRT-PCR); details: after 6TG treatment
Description: With reference to FIG. 50, K562 cells were transduced with TL20c-rGbGM-7SK/sh734 or TL20c GbG^M21 days before initiating 6TG treatment. RNA was isolated and qRT-PCRT was performed to determine the number of copies of sh734 relative to RNU38B and normalized to VCN (relative expression/VCN). Relative expression levels of sh734 and HPRT were determined every two weeks post-transduction. The graph illustrated sh734 plotted on the left Y-axis and the percent of HPRT knockdown related to mock transduced cells (HPRT/mock×100) and normalized to VCN plotted on the right Y axis.
K562 cells were transduced with the sh7-GFP mono-vector reporter construct or CAL-H for 21 days before initiating 6TG. RNA was isolated, and qRT-PCR performed to determine the number of copies of sh734 relative to RNU38B and normalized to VCN (relative expression/VCN). FIGS. 51A and 51B illustrates the percent HPRT knockdown relative to mock transduced cells (HPRT/mock×100) normalized to VCN is plotted on the right Y axis. […] 14 days after selection, HPRT levels became undetectable in transduced cultures. 6TG selected K562 cells continued to grow and express sh734 after 3-months in culture (data not shown). […] At day 21, K562 cultures transduced with the sh7-GFP reporter construct were 35% GFP+ and increased to 88% GFP+ cells by day 42 following 6TG treatment.

Molecule	obvious cytotoxicity in K562 cells (HPRT [1])	duration of sh734 expression and function in culture (K562 cells)	HPRT levels (HPRT [2])	HPRT levels (HPRT staining) (HPRT [1]; K562 cells after three weeks of 6-TG selection, control 99%)
sh211: shRNA targeting an HPRT gene, SEQ ID NO: 28 (GGTTATGACCTTGATTTATACCTGACCCATATTAAATCAAGGTCATAACCTTTTT)	not observed			
sh734: shRNA targeting an HPRT gene, SEQ ID NO: 30 (AGGATATGCCCTTGACTATTTGTCCGACATAGTCAAGGGCATATCCTTTTTT)	not observed	greater than 3 months	less than 10 % of untreated cells	
B1				12%
